Data as given in patent US10000488B2, “Heterocyclic compound” (TAKEDA PHARMACEUTICAL COMPANY LIMITED, priority 2014, dated 2018).
Where a name gives a salt, the structure may show the parent alone.

Columns and labels:
RORγt [1] = biological target: T1, RORγt (Homo sapiens, UniProt P51449); assay: Jurkat reporter test (human IL-17 ROR response element luciferase reporter, RORγt vector); assay type: cell-based; details: test compound 3 μM; Jurkat cells; read-out: luminescence level inhibitory rate (%) at test compound 3 μM
T1 sequence (P51449 1-497 isoform P51449-2): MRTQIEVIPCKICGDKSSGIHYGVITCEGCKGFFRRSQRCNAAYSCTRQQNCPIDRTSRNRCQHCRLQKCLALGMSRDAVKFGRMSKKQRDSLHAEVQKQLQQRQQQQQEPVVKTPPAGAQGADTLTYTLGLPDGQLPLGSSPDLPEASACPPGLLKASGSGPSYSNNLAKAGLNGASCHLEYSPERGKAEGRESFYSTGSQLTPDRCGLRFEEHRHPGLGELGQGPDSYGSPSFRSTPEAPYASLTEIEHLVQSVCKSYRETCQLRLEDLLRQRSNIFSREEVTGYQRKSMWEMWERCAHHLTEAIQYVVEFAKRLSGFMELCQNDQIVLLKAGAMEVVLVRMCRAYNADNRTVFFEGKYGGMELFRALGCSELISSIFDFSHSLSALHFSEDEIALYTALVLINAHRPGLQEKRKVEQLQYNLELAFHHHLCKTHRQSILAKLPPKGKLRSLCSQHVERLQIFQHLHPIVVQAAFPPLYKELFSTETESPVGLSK
Description: The Jurkat cells used for the reporter test were cultured in a culture medium (RPMI (Invitrogen), 10% FCS (AusGeneX), 100 U/mL penicillin, 100 μg/mL streptomycin). On the day of the test, 4×10^7 cells were recovered by a centrifugal operation (1000 rpm, for 5 min) and suspended in PBS (phosphate buffered saline) (Invitrogen). Thereafter, the cells were recovered again by a centrifugal operation, and suspended in 2 mL of R buffer (NEON transfection kit, Invitrogen). […] Gene transfer was performed by Electroporation apparatus (NEON, Invitrogen) under the conditions of pulse voltage 1350 V, interval 10 milliseconds, number of times 3. The cells after gene transfer were suspended in 40 mL of a reaction medium (RPMI, 10% Lipid reduced FCS (HyClone), 10 mM HEPES (pH 7.5), 100 U/mL penicillin, 100 μg/mL streptomycin, 5 μM lovastatin), and plated in a 96 well plate by 90 μL. A test compound diluted with the reaction medium was added by 10 μL, and the cells were cultured overnight in an incubator. Bright-Glo (Promega) was added by 100 μL, and the mixture was stirred at room temperature for 10 min, and the luminescence level was measured by Envision (PerkinElmer).

RORγt [2] = biological target: T1, RORγt; assay: Cofactor recruitment test (Alpha Screen, biotinylated SRC-1 peptide); assay type: biochemical; details: read-out: signal value inhibitory rate (%) at test compound 1 μM
Description: Cofactor Recruitment Test
Cofactor recruitment test was performed by Alpha Screen (Histidine Detection Kit, PerkinElmer) method. First, a test compound was diluted with an assay buffer (50 mM Tris-HCl (pH 7.5), 50 mM KCl, 1 mM DTT, 0.1% BSA) and added to a 384 well plate by 5 μL. […] The mixture was stood in a dark place for 1 hr, and the signal value was measured by Envision (PerkinElmer).

RORγt [3] = biological target: T1, RORγt; assay: RORγt binding test using fluorescent-labeled synthetic ligand (TR-FRET); details: test compound 1 μM; read-out: binding inhibitory rate (%) of fluorescent-labeled synthetic ligand to RORγt at test compound 1 μM
Description: RORγt Binding Test Using Fluorescent-Labeled Synthetic Ligand
The binding activity of the test compound to RORγt was measured by a time resolved fluorescence resonance energy transfer (TR-FRET) utilizing histidine-tagged RORγt, fluorescent-labeled synthetic ligand, and terbium-labeled anti-histidine tag antibody (Invitrogen). First, a test compound diluted with an assay buffer (20 mM Tris-HCl (pH 7.5), 100 mM NaCl, 1 mM DTT, 0.1% BSA) was added to a 384 well plate by 3 μL. Then, RORγt diluted with an assay buffer to 240 nM was added by 3 μL, after which fluorescent-labeled synthetic ligand diluted with the assay buffer to 12 μM was added by 3 μL, and the mixture was stood at room temperature for 20 min. Thereafter, a terbium-labeled anti-histidine tag antibody diluted with the assay buffer to 8 nM was added by 3 μL. The mixture was stood at room temperature for 20 min, and fluorescence intensity (excitation wavelength 320 nm, fluorescence wavelength 520 nm, delay time 100 microseconds) was measured by Envision (PerkinElmer).

inhibition at 3 µM (RORγt [1]) [%] | inhibition at 1 µM (RORγt [2]) [%] | inhibition at 1 µM (RORγt [3]) [%] | SMILES
102 | 102 | 102 | CC(C)n1c(=O)n(CC2CC2)c(=O)c2cc(NC(=O)N3CCCC(NC(=O)c4ccc(C#N)c(Cl)c4)C3)ccc21 (stereo not drawn) [Example 88, 3-((3-chloro-4-cyanobenzoyl)amino)-N-(3-(cyclopropylmethyl)-1-isopropyl-2,4-dioxo-1,2,3,4-tetrahydroquinazolin-6-yl)piperidine-1-carboxamide]
103 | 103 | 102 | CC(C)n1c(=O)n(CC2CC2)c(=O)c2cc(NC(=O)N3CCNC(C(=O)Nc4ccc(C#N)c(F)c4)C3)ccc21 (stereo not drawn) [Example 92, N^3-(4-cyano-3-fluorophenyl)-N^1-(3-(cyclopropylmethyl)-1-isopropyl-2,4-dioxo-1,2,3,4-tetrahydroquinazolin-6-yl)piperazine-1,3-dicarboxamide hydrochloride]
102 | 109 | 102 | COC(=O)c1cccc(C(=O)NC2CCCN(C(=O)Nc3ccc4c(c3)c(=O)n(CC3CC3)c(=O)n4C(C)C)C2)c1 (stereo not drawn) [Example 113, methyl 3-((1-((3-(cyclopropylmethyl)-1-isopropyl-2,4-dioxo-1,2,3,4-tetrahydroquinazolin-6-yl)carbamoyl)piperidin-3-yl)carbamoyl)benzoate]
100 | 112 | 102 | COC(=O)c1ccc(C(=O)NC2CCCN(C(=O)Nc3ccc4c(c3)c(=O)n(CC3CC3)c(=O)n4C(C)C)C2)cc1 (stereo not drawn) [Example 132, methyl 4-((1-((3-(cyclopropylmethyl)-1-isopropyl-2,4-dioxo-1,2,3,4-tetrahydroquinazolin-6-yl)carbamoyl)piperidin-3-yl)carbamoyl)benzoate]
101 | 103 | 102 | CC(C)n1c(=O)n(CC2CC2)c(=O)c2cc(NC(=O)N3CCCC(NC(=O)Nc4ccccc4)C3)ccc21 (stereo not drawn) [Example 146, N-(3-(cyclopropylmethyl)-1-isopropyl-2,4-dioxo-1,2,3,4-tetrahydroquinazolin-6-yl)-3-((phenylcarbamoyl)amino) piperidine-1-carboxamide]
102 | 109 | 102 | CC(C)n1c(=O)n(CC2CC2)c(=O)c2cc(NC(=O)N3CCCC(NC(=O)c4ccc(C#N)nc4)C3)ccc21 (stereo not drawn) [Example 157, 6-cyano-N-(1-((3-(cyclopropylmethyl)-1-isopropyl-2,4-dioxo-1,2,3,4-tetrahydroquinazolin-6-yl)carbamoyl)piperidin-3-yl) nicotinamide]
100 | 111 | 101 | CC(C)n1c(=O)n(CC2CC2)c(=O)c2cc(NC(=O)N3CCOC(C(=O)Nc4ccc(C#N)c(F)c4)C3)ccc21 (stereo not drawn) [Example 176, N^2-(4-cyano-3-fluorophenyl)-N^4-(3-(cyclopropylmethyl)-1-isopropyl-2,4-dioxo-1,2,3,4-tetrahydroquinazolin-6-yl)morpholine-2,4-dicarboxamide]
101 | 111 | 102 | CC(C)n1c(=O)n(CC2CC2)c(=O)c2cc(NC(=O)N3CCCC(NC(=O)c4ccc(C#N)cc4)C3)ccc21 (stereo not drawn) [Example 180, 3-((4-cyanobenzoyl)amino)-N-(3-(cyclopropylmethyl)-1-isopropyl-2,4-dioxo-1,2,3,4-tetrahydroquinazolin-6-yl)piperidine-1-carboxamide]

Second part, the compound before the results:

SMILES | inhibition at 3 µM (RORγt [1]) [%] | inhibition at 1 µM (RORγt [2]) [%] | inhibition at 1 µM (RORγt [3]) [%]
CC(C)n1c(=O)n(CC2CC2)c(=O)c2cc(NC(=O)N3CCNC(C(=O)Nc4ccc(C#N)c(Cl)c4)C3)ccc21 (stereo not drawn) [Example 82, N^3-(3-chloro-4-cyanophenyl)-N^1-(3-(cyclopropylmethyl)-1-isopropyl-2,4-dioxo-1,2,3,4-tetrahydroquinazolin-6-yl)piperazine-1,3-dicarboxamide] | 102 | 103 | 101
CC(C)n1c(=O)n(CC2CC2)c(=O)c2cc(NC(=O)N3CCO[C@@H](C(=O)Nc4ccc(C#N)c(F)c4)C3)ccc21 [Example 102, (2R)-N^2-(4-cyano-3-fluorophenyl)-N^4-(3-(cyclopropylmethyl)-1-isopropyl-2,4-dioxo-1,2,3,4-tetrahydroquinazolin-6-yl)morpholine-2,4-dicarboxamide] | 104 | 102 | 101
CC(C)n1c(=O)n(CC2CC2)c(=O)c2cc(NC(=O)N3CCO[C@@H](C(=O)Nc4cnc(C#N)c(F)c4)C3)ccc21 [Example 103, (2R)-N^2-(6-cyano-5-fluoropyridin-3-yl)-N^4-(3-(cyclopropylmethyl)-1-isopropyl-2,4-dioxo-1,2,3,4-tetrahydroquinazolin-6-yl)morpholine-2,4-dicarboxamide] | 103 | 102 | 101
CC(C)n1c(=O)n(CC2CC2)c(=O)c2cc(NC(=O)N3CCO[C@@H](C(=O)Nc4cnc(C#N)c(Cl)c4)C3)ccc21 [Example 122, (2R)-N^2-(5-chloro-6-cyanopyridin-3-yl)-N^4-(3-(cyclopropylmethyl)-1-isopropyl-2,4-dioxo-1,2,3,4-tetrahydroquinazolin-6-yl)morpholine-2,4-dicarboxamide] | 103 | 112 | 101
CC(C)n1c(=O)n(CC2CC2)c(=O)c2cc(NC(=O)N3CCOC(C(=O)Nc4cc(F)c(C#N)cc4F)C3)ccc21 (stereo not drawn) [Example 135, N^2-(4-cyano-2,5-difluorophenyl)-N^4-(3-(cyclopropylmethyl)-1-isopropyl-2,4-dioxo-1,2,3,4-tetrahydroquinazolin-6-yl)morpholine-2,4-dicarboxamide] | 99 | 113 | 102
CC(C)n1c(=O)n(CC2CC2)c(=O)c2cc(NC(=O)N3CCO[C@@H](C(=O)Nc4cc(F)c(C#N)cc4F)C3)ccc21 [Example 168, (2R)-N^2-(4-cyano-2,5-difluorophenyl)-N^4-(3-(cyclopropylmethyl)-1-isopropyl-2,4-dioxo-1,2,3,4-tetrahydroquinazolin-6-yl)morpholine-2,4-dicarboxamide] | 102 | 108 | 102
CC(C)n1c(=O)n(CC2CC2)c(=O)c2cc(NC(=O)N3CCO[C@@H](C(=O)Nc4cc(F)c(C#N)cc4F)C3)c(F)cc21 [Example 171, (2R)-N^2-(4-cyano-2,5-difluorophenyl)-N^4-(3-(cyclopropylmethyl)-7-fluoro-1-isopropyl-2,4-dioxo-1,2,3,4-tetrahydroquinazolin-6-yl)morpholine-2,4-dicarboxamide] | 103 | 107 | 101
CC(C)n1c(=O)n(CC2CC2)c(=O)c2cc(NC(=O)N3CCO[C@@H](C(=O)Nc4ccc(C#N)c(F)c4)C3)c(F)cc21 [Example 172, (2R)-N^2-(4-cyano-3-fluorophenyl)-N^4-(3-(cyclopropylmethyl)-7-fluoro-1-isopropyl-2,4-dioxo-1,2,3,4-tetrahydroquinazolin-6-yl)morpholine-2,4-dicarboxamide] | 105 | 111 | 102
